This assay deals with T1, c-Rel (Mus musculus, UniProt P15307).
T1 construct: nuclear extracts from RAW cells stimulated with LPS/IFNγ; endogenous in cells; host or cells: RAW264.7
The assay can be described thus: Immunofluorescence of c-Rel nuclear accumulation in LPS-stimulated RAW264.7 cells. It counts as cell-based. To be noted: 100 nM. The procedure: We next examined whether compound 50 can block the accumulation of c-Rel in the nucleus of cells induced by LPS (FIG. 2). RAW264.7 cells cultured in DMEM with 10% BCS were split and seeded into 4-well chambered slides at 80,000 cells/well density. The cells were then treated with DMSO, Compound 50 (100 nM), LPS (Sigma, 5 μg/mL), LPS (5 μg/mL)+Compound 50 (100 nM) for 4 hours and fixed with 3% paraformaldehyde solution (1×PBS) after 1× quick rinse with 1×PBS. Fixed cells were permeablized with 0.2% TX100 and immunostained with anti-cRel antibody (SC70, Santa Cruz, 1:200 dilution) or anti-NF-κB p65 antibody (SC109, Santa Cruz, 1:100 dilution), and subsequently stained with Alexa Fluor 488 Goat-anti-Rabbit secondary antibody and DAPI (Molecular Probes, 1.1 μM). Images were obtained with CoolSNAP monochrome CCD camera on a Nikon inverted microscope TE300 using identical imaging parameters and were processed identically with Photoshop CS software. As observed previously, c-Rel localized to the cytoplasm in DMSO-treated cells and to the nucleus in LPS-treated cells. […] We also examined whether Compound 50 blocks the nuclear accumulation of another NF-κB/Rel family member, p65, in LPS-stimulated RAW cells (FIG. 3). As observed for c-Rel, p65 was localized to the cytoplasm in DMSO and Compound 50-treated cells and to the nucleus in LPS-stimulated cells. […]

T1 sequence (P15307 whole entry): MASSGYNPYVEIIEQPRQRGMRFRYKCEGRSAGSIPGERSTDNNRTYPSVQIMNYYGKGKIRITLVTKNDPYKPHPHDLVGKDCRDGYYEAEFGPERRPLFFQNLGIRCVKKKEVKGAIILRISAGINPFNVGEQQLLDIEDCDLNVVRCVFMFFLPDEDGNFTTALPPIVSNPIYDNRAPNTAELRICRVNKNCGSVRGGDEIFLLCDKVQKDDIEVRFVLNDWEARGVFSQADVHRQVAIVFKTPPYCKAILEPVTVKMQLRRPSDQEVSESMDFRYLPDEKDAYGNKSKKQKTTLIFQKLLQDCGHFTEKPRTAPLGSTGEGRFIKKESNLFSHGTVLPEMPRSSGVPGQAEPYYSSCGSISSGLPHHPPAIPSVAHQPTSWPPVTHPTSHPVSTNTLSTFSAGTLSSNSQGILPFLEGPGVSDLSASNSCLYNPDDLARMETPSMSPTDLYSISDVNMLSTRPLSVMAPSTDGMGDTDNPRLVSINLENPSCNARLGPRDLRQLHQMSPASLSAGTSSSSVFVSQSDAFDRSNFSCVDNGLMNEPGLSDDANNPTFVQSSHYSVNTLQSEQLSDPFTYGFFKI

`Cc1cccc(/C=N/Nc2cc(N3CCOCC3)nc(OCCc3ccccn3)n2)c1` [Compound 50, N-(3-Methyl-benzylidene)-N′-[6-morpholin-4-yl-2-(2-pyridin-2-yl-ethoxy)-pyrimidin-4-yl]-hydrazine]: the “LPS-induced accumulation of c-Rel in the nucleus” value (RAW264.7, LPS 5 μg/mL, 4 hours) is “inhibited”. Also, for the setting “RAW264.7, absence of LPS, 4 h”, the “nuclear/cytoplasmic distribution of c-Rel” value is “did not alter”.

For the origin of these results see US20120021434A1, “METHOD FOR TREATING B CELL REGULATED AUTOIMMUNE DISORDERS” (Synta Pharmaceuticals Corp., priority 2005, published 2012).
